From patent US20160158200A1, “Combinations of Hepatitis C Virus Inhibitors” (priority 2013, published 2016)

Tested on: HCV genotype-1a variant with glutamine 30 changed to glutamate in the NS5A protein
Type: cell-based
Details: test compound titrated with BMS-790052 fixed at 200 nM; genotype 1a Q30E replicon
In short: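 Synergy was assessed by combining several fixed amounts of an NS5A-targeting compound with a titration of the second compound of interest.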

| Compound | Fold-Synergistic 1a (Q30E) [fold] |
| --- | --- |
| CC(C)[C@H](NC(=O)c1ccc(Cl)c(Cl)c1)c1ncc(-c2ccc(-c3ccc(-c4cnc([C@@H](NC(=O)c5ccc(Cl)c(Cl)c5)C(C)C)[nH]4)cc3)cc2)[nH]1 [Compound S-75] | >100 |
| CC(C)[C@H](NC(=O)C(C)(C)n1cccn1)c1ncc(-c2ccc(-c3ccc(-c4cnc([C@@H](NC(=O)C(C)(C)n5cccn5)C(C)C)[nH]4)cc3)cc2)[nH]1 [Compound Y-25] | >100 |
| CC(C)[C@H](NC(=O)C1CCC(F)(F)CC1)c1nc2ccc(C#Cc3ccc4nc([C@@H](NC(=O)C5CCC(F)(F)CC5)C(C)C)[nH]c4c3)cc2[nH]1.O=C(O)C(F)(F)F [Compound B42] | >100 |
| CC(C)(C)OC(=O)NC1(C(=O)N[C@H](c2nc(-c3ccc(-c4ccc(-c5c[nH]c([C@@H](NC(=O)C6(NC(=O)OC(C)(C)C)CC6(F)F)C(C)(C)C)n5)cc4)cc3)c[nH]2)C(C)(C)C)CC1(F)F (single isomer, unassigned) [Compound W-14] | >100 |
| CC(C)(C)[C@H](NC(=O)[C@H]1C[C@@H]2CC(F)(F)C[C@@H]2C1)c1nc(-c2ccc(-c3ccc(-c4c[nH]c([C@@H](NC(=O)[C@H]5C[C@@H]6CC(F)(F)C[C@@H]6C5)C(C)(C)C)n4)cc3)cc2)c[nH]1 [Compound P-42] | >100 |
| CC(C)(C)[C@H](NC(=O)C1(C(O)c2ccccc2)CC1)c1nc(-c2ccc(-c3ccc(-c4c[nH]c([C@@H](NC(=O)C5(C(O)c6ccccc6)CC5)C(C)(C)C)n4)cc3)cc2)c[nH]1 (single isomer, unassigned) [Compound N-126C] | >100 |
| CC(C)(C)C(NC(=O)C(C)(O)C(F)(F)F)c1nc(-c2ccc(-c3ccc(-c4c[nH]c(C(NC(=O)C(C)(O)C(F)(F)F)C(C)(C)C)n4)cc3)cc2)c[nH]1.O=C(O)C(F)(F)F.O=C(O)C(F)(F)F (single isomer, unassigned) [Compound L-66b] | >100 |
| CC1([C@H](NC(=O)C2CCC(F)(F)CC2)c2nc3ccc(C#Cc4ccc5nc([C@@H](NC(=O)C6CCC(F)(F)CC6)C6(C)CC6)[nH]c5c4)cc3[nH]2)CC1 [Compound B67] | >100 |
| CC(C)(Oc1ccccc1F)C(=O)N[C@H](c1nc(-c2ccc(-c3ccc(-c4c[nH]c([C@@H](NC(=O)C(C)(C)Oc5ccccc5F)C(C)(C)C)n4)cc3)cc2)c[nH]1)C(C)(C)C [Compound Y-4] | >100 |
| CC(C)(C)OC(=O)N1CCOCC1C(=O)NC(c1nc(-c2ccc(-c3ccc(-c4c[nH]c(C(NC(=O)C5COCCN5C(=O)OC(C)(C)C)C(C)(C)C)n4)cc3)cc2)c[nH]1)C(C)(C)C [Compound L-61] | >100 |
| O=C(Oc1ccccc1)N1CCC[C@H]1c1ncc(-c2ccc(-c3ccc(-c4cnc([C@@H]5CCCN5C(=O)Oc5ccccc5)[nH]4)cc3)cc2)[nH]1 [Compound S-223] | >100 |
| CC(C)(C)[C@H](NC(=O)CS(C)(=O)=O)c1nc(-c2ccc(-c3ccc(-c4cnc([C@@H](NC(=O)CS(C)(=O)=O)C(C)(C)C)[nH]4)cc3)cc2)c[nH]1 [Compound B-181] | >10 |
| COCC1(C(=O)N[C@H](c2nc(-c3ccc(-c4ccc(-c5c[nH]c([C@@H](NC(=O)C6(COC)CCC6)C(C)(C)C)n5)cc4)cc3)c[nH]2)C(C)(C)C)CCC1 [Compound N-59] | >100 |
| CC(C)[C@H](NC(=O)c1cocn1)c1ncc(-c2ccc(-c3ccc(-c4cnc([C@@H](NC(=O)c5cocn5)C(C)C)[nH]4)cc3)cc2)[nH]1 [Compound P-92] | >10 |
| CC(C)[C@H](NC(=O)C(C)(C)F)c1nc(-c2ccc(-c3ccc(-c4c[nH]c([C@@H](NC(=O)C(C)(C)F)C(C)C)n4)c(F)c3)cc2)c[nH]1.O=C(O)C(F)(F)F [Compound N-90] | >100 |
| CC(C)(C)[C@H](NC(=O)C1(C(F)(F)F)CC1)c1nc(-c2ccc(-c3ccc(-c4c[nH]c([C@@H](NC(=O)C5(C(F)(F)F)CC5)C(C)(C)C)n4)cc3)cc2)c[nH]1 [Compound P-30] | >100 |
| CC(C)[C@H](NC(=O)C1CCC(F)(F)CC1)c1ncc(-c2ccc(C#Cc3ccc4nc([C@@H](NC(=O)C5CCC(F)(F)CC5)C(C)C)[nH]c4c3)cc2)[nH]1 [Compound B51] | >100 |
| COc1cccc(CC(=O)N[C@H](c2ncc(-c3ccc(-c4ccc(-c5cnc([C@@H](NC(=O)Cc6cccc(OC)c6)C(C)C)[nH]5)cc4)cc3)[nH]2)C(C)C)c1 [Compound S-40] | >100 |
| CC(C)(C)C(NC(=O)C1(CO)CCCOC1)c1nc(-c2ccc(-c3ccc(-c4c[nH]c(C(NC(=O)C5(CO)CCCOC5)C(C)(C)C)n4)cc3)cc2)c[nH]1 (mixture of isomers) [Compound Y-101] | >100 |
| CC1(C(NC(=O)C2(O)CCC(F)(F)CC2)c2nc(-c3ccc(-c4ccc(-c5c[nH]c(C(NC(=O)C6(O)CCC(F)(F)CC6)C6(C)CC6)n5)cc4)cc3)c[nH]2)CC1.O=C(O)C(F)(F)F.O=C(O)C(F)(F)F (stereo not shown) [Compound P-151] | >100 |
| COC1(C(=O)N[C@H](c2ncc(-c3ccc(-c4ccc(-c5cnc([C@@H](NC(=O)C6(OC)CCC(F)(F)CC6)C6(C)CC6)[nH]5)cc4)cc3)[nH]2)C2(C)CC2)CCC(F)(F)CC1 [Compound P-132] | >100 |
| Cc1cc(-c2ccc(-c3c[nH]c([C@@H](NC(=O)c4ccc(Cl)s4)C(C)C)n3)cc2)ccc1-c1c[nH]c([C@@H](NC(=O)c2ccc(Cl)s2)C(C)C)n1.O=C(O)C(F)(F)F [Compound N-83] | >100 |
| CC(C)(C)C(=O)C(=O)N[C@H](c1nc(-c2ccc(-c3ccc(-c4c[nH]c([C@@H](NC(=O)C(=O)C(C)(C)C)C(C)(C)C)n4)cc3)cc2)c[nH]1)C(C)(C)C [Compound W-238] | >100 |
| CC(C)[C@H](NC(=O)c1ccc(Cl)s1)c1ncc(-c2ccc(-c3ccc(-c4cnc([C@@H](NC(=O)c5ccc(Cl)s5)C(C)(C)C)[nH]4)cc3)cc2)[nH]1 [Compound Y-44] | >100 |
| CC(C)(C(=O)N[C@H](c1nc(-c2ccc(-c3ccc(-c4c[nH]c([C@@H](NC(=O)C(C)(C)C(O)C5CC(F)(F)C5)C(C)(C)C)n4)cc3)cc2)c[nH]1)C(C)(C)C)C(O)C1CC(F)(F)C1 (single isomer, unassigned) [Compound N-144B] | >100 |
| CC(C)(C)C(=O)N[C@H](c1nc2ccc(C#Cc3ccc4nc([C@@H](NC(=O)C(C)(C)C)C(C)(C)C)[nH]c4c3)cc2[nH]1)C(C)(C)C.O=C(O)C(F)(F)F [Compound B39] | >100 |
| CC(C)(C)[C@H](NC(=O)C(N)=O)c1nc(-c2ccc(-c3ccc(-c4c[nH]c([C@@H](NC(=O)C(N)=O)C(C)(C)C)n4)cc3)cc2)c[nH]1 [Compound W-42] | >10 |
| CC(C)[C@H](NC(=O)c1cccc(C#N)c1)c1ncc(-c2ccc(-c3ccc(-c4cnc([C@@H](NC(=O)c5cccc(C#N)c5)C(C)C)[nH]4)cc3)cc2)[nH]1 [Compound S-72] | >100 |
